# Literature values in US9730952B2, “Methods for treating and preventing mucositis” (Indena S.p.A., priority 2006, dated 2017).
# How the values were obtained:
# [1] = tested on: Gram+ and Gram− bacteria
# [2] = tested on: numerous strains of Candida and other pathogenic fungi
SMILES,concentration inhibiting growth of Gram+ and Gram− bacteria [1],concentration inhibiting growth of numerous strains of Candida and other pathogenic fungi [2]
COc1ccc2c(c[n+](C)c3c4cc5c(cc4ccc23)OCO5)c1OC [chelerythrine],nanomolar concentrations,nanomolar concentrations
CN1Cc2c(ccc3c2OCO3)[C@@H]2[C@H]1c1cc3c(cc1C[C@@H]2O)OCO3 [chelidonine],nanomolar concentrations,nanomolar concentrations
